Measurements reported in ChEMBL document CHEMBL3632608, “Effects of alkyl side chains and terminal hydrophilicity on vitamin D receptor (VDR) agonistic activity based on the diphenylpentane skeleton” (Bioorg Med Chem Lett, 2015).
Calls of active or inactive are those of the source. No cut-off for these calls is given here.

Legend:
Format in all cases: cell-based
Vitamin D3 receptor = target: T1, Vitamin D3 receptor (Homo sapiens, UniProt P11473); assay: Agonist activity at human VDR expressed in HEK293 cells co-expressing CMX-GAL4N and TK-MH100x4-LUC assessed as induction of transcriptional activity by beta-galactosidase reporter gene assay
T1 sequence (P11473 whole entry): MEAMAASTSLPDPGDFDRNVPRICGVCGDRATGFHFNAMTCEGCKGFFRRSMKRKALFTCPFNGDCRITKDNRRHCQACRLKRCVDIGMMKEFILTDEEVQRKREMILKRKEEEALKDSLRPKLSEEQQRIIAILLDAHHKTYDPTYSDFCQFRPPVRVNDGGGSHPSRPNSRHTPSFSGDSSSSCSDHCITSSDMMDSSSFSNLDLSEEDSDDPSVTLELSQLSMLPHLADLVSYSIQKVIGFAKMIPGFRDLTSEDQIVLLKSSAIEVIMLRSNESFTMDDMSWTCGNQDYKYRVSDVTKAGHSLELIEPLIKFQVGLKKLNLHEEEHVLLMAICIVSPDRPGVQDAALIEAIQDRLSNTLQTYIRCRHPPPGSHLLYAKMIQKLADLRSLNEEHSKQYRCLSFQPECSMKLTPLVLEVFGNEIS

[1] = target: T2, Vitamin D3 receptor (Homo sapiens) (UniProt P11473); assay: Agonist activity at VDR in human HL60 cells assessed as induction of cell differentiation at 10 uM by NBT reduction assay; settings: HL-60
T2 sequence (whole entry): T1 sequence (P11473 whole entry)

[2] = target: T2, Vitamin D3 receptor (Homo sapiens); assay: Agonist activity at human VDR expressed in HEK293 cells co-expressing CMX-GAL4N and TK-MH100x4-LUC assessed as induction of transcriptional activity at 3 uM by beta-galactosidase reporter gene assay relative to 1alpha,25(OH)2VD3
[3] = target: T2, Vitamin D3 receptor (Homo sapiens); assay: Antagonist activity at human VDR expressed in HEK293 cells co-expressing CMX-GAL4N and TK-MH100x4-LUC assessed as inhibition of 1alpha,25(OH)2VD3-induced transcriptional activity up to 10 uM by beta-galactosidase reporter gene assay
[4] = target: T2, Vitamin D3 receptor (Homo sapiens); assay: Agonist activity at human VDR expressed in HEK293 cells co-expressing CMX-GAL4N and TK-MH100x4-LUC assessed as induction of transcriptional activity at 10 uM by beta-galactosidase reporter gene assay relative to 1alpha,25(OH)2VD3

Structure (SMILES)	EC50 (Vitamin D3 receptor; hek293)	Activity [1] [%]	Activity [2] [%]	EC50 (Vitamin D3 receptor; read-out: EC50) [nM]	inhibition [3]	Activity [4] [%]
CCCCCCCCCCOC(C)(C)[C@@H](O)COc1ccc(C(CC)(CC)c2ccc(OC[C@@H](O)CO)c(C)c2)cc1C	Not Active					
CCCCCCOC(C)(C)[C@@H](O)COc1ccc(C(CC)(CC)c2ccc(OC[C@@H](O)CO)c(C)c2)cc1C		25.1	37	1500	inactive	47
CCCCCCCCCCOC(C)(C)[C@H](O)COc1ccc(C(CC)(CC)c2ccc(OC[C@@H](O)CO)c(C)c2)cc1C	Not Active					
CCC(CC)(c1ccc(OC[C@@H](O)CO)c(C)c1)c1ccc(OC[C@@H](O)C(C)(C)OCCCCCCCCO)c(C)c1		18.8	40	> 3000	inactive	
CCCCCCOC(C)(C)[C@H](O)COc1ccc(C(CC)(CC)c2ccc(OC[C@@H](O)CO)c(C)c2)cc1C			19	> 10000	inactive	22
CCCCCCCCOC(C)(C)[C@@H](O)COc1ccc(C(CC)(CC)c2ccc(OC[C@@H](O)CO)c(C)c2)cc1C	Not Active					
CCC(CC)(c1ccc(OC[C@@H](O)CO)c(C)c1)c1ccc(OC[C@H](O)C(C)(C)OCCCCCCCCO)c(C)c1		37.6	77	1200	inactive	100
CCCCCCCCOC(C)(C)[C@H](O)COc1ccc(C(CC)(CC)c2ccc(OC[C@@H](O)CO)c(C)c2)cc1C	Not Active					
